Experimental findings from patent US20170037028A1 (BAYER PHARMA AKTIENGESELLSCHAFT, priority 2013, published 2017) are described below.

This assay deals with T1, GLUT1 (Homo sapiens, UniProt P11166).
T1 sequence (P11166 1-492): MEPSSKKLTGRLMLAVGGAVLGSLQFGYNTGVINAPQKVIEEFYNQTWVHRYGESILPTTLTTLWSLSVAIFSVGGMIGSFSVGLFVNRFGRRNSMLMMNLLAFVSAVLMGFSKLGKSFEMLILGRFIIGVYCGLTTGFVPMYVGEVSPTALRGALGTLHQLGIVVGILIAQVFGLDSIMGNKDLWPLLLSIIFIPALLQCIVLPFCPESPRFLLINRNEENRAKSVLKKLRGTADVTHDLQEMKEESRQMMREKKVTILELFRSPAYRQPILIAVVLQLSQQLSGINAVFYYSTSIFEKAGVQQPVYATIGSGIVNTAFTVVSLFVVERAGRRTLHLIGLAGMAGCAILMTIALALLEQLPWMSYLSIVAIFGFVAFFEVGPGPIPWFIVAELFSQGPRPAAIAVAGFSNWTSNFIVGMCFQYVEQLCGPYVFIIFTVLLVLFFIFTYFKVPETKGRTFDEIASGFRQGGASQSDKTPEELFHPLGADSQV
In words: Indirect measurement of GLUT1 activity by quantification of intracellular ATP levels (glucose induced ATP increase). The following applies: read-out: IC50 regarding glucose induced ATP increase (GLUT1 inhibition). Format: cell-based. Further details: endogenous in cells; host or cells: DLD1 or CHO-K1. Summed up: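 DLD1 or CHO-K1 cells were starved overnight in glucose-free medium with 1% FCS, then combined with an oxidative phosphorylation inhibitor. GLUT1 activity was read as glucose-induced ATP increase, GLUT2 as fructose-induced. Intracellular ATP was quantified by CellTiter-Glo luminescence.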
Usually IC50 stands for the concentration at which inhibition is half-maximal. `Cc1nn(Cc2ccc(C(=O)NCCC(N)=O)cc2)c(C)c1NC(=O)c1cc(C(F)(F)F)nc2ccc(Br)cc12` [Example 1067]: the half-maximal inhibitory concentration (IC50) was determined as 0.0192 µM.

For `Cc1nn(Cc2ccc(C(C)C)cc2)c(C)c1NC(=O)c1cc(C(N)=O)nc2cc(F)ccc12` [Example 1404], the IC50 was 0.0038 µM.

`Cc1nn(CC2CCN(S(=O)(=O)C(C)C)CC2)c(C)c1NC(=O)c1cc(C(N)=O)nc2ccccc12` [Example 1517]: the IC50 was 0.0987 µM.

For `Cc1nn(Cc2ccc(C#N)cc2)c(C)c1NC(=O)c1cc(C(=O)NCCO)nc2cc(F)ccc12` [Example 1399], the IC50 was 0.132 µM.

Turning to `COc1ccc(CCCn2nc(C)c(NC(=O)c3cc(C(N)=O)nc4ccccc34)c2C)cc1` [Example 284, N^4-{1-[3-(4-methoxyphenyl)propyl]-3,5-dimethyl-1H-pyrazol-4-yl}quinoline-2,4-dicarboxamide], the IC50 came to 0.009 µM.

On to `Cc1nn(Cc2ccc(C#N)nc2)c(C)c1NC(=O)c1cc(C(F)(F)F)nc2cc(F)c(F)cc12` [Example 183, N-{1-[(6-cyanopyridin-3-yl)methyl]-3,5-dimethyl-1H-pyrazol-4-yl}-6,7-difluoro-2-(trifluoromethyl)quinoline-4-carboxamide], for which the IC50 was found to be 0.107 µM.

On to `COc1cccc(Cn2nc(C)c(NC(=O)c3cc(C(F)(F)F)nc4c(Cl)cc(Cl)cc34)c2C)c1` [Example 67, 6,8-dichloro-N-[1-(3-methoxybenzyl)-3,5-dimethyl-1H-pyrazol-4-yl]-2-(trifluoromethyl)quinoline-4-carboxamide], for which the IC50 came out at 0.146 µM.

As for `Cc1nn(Cc2ccccc2)c(C)c1NC(=O)c1cc(C(F)(F)F)nc2ccc(Br)cc12` [Example 33, N-(1-benzyl-3,5-dimethyl-1H-pyrazol-4-yl)-6-bromo-2-(trifluoromethyl)quinoline-4-carboxamide], the IC50 came out at 0.025 µM.

Turning to `Cc1nn(Cc2ccc(OC(F)(F)F)cc2)c(C)c1NC(=O)c1cc(C(N)=O)nc2cccc(F)c12` [Example 1462], the IC50 was determined as 0.0029 µM.

Regarding `Cc1nn(Cc2ccncn2)c(C)c1NC(=O)c1cc(C(N)=O)nc2ccccc12` [Example 1417], the concentration for half-maximal inhibition (IC50) was found to be 0.164 µM.

Regarding `Cc1nn(Cc2ccc(C(F)(F)F)cc2)c(C)c1NC(=O)c1cc(C(N)=O)nc2cc(F)ccc12` [Example 1599], the IC50 is 0.0065 µM.

Regarding `CSc1cc(C(=O)Nc2c(C(F)(F)F)nn(Cc3ccc(C#N)cc3)c2C)c2ccccc2n1` [Example 382, N-[1-(4-cyanobenzyl)-5-methyl-3-(trifluoromethyl)-1H-pyrazol-4-yl]-2-(methylsulfanyl)quinoline-4-carboxamide], the half-maximal inhibitory concentration (IC50) came to 0.0261 µM.

For `Cc1nn(Cc2ccc(C(N)=O)cc2)c(C)c1NC(=O)c1cc(C(F)(F)F)nc2ccc(Br)cc12` [Example 133, 6-bromo-N-[1-(4-carbamoylbenzyl)-3,5-dimethyl-1H-pyrazol-4-yl]-2-(trifluoromethyl)quinoline-4-carboxamide], the IC50 is 0.0056 µM.

Regarding `Cc1c(NC(=O)c2cc(C(N)=O)nc3cc(F)ccc23)c(C(F)(F)F)nn1Cc1ccc(C(=O)NCCN(C)C)cc1` [Example 374, N^4-[1-(4-{[2-(dimethylamino)ethyl]carbamoyl}benzyl)-5-methyl-3-(trifluoromethyl)-1H-pyrazol-4-yl]-7-fluoroquinoline-2,4-dicarboxamide], the IC50 came to 0.895 µM.

Take `Cc1nn(Cc2ccc(C(=O)NCCn3ccnc3)cc2)c(C)c1NC(=O)c1cc(C(F)(F)F)nc2ccc(Br)cc12` [Example 1116]: the IC50 stood at 0.0595 µM.

In the case of `Cc1ccc2nc(C)cc(C(=O)Nc3c(C)nn(Cc4ccc(C#N)c(F)c4)c3C)c2c1` [Example 1127], the IC50 was found to be 0.0833 µM.

`Cc1c(NC(=O)c2cc(C(N)=O)nc3ccc(NCCN(C)C)cc23)c(C(F)(F)F)nn1Cc1ccc(C#N)cc1` [Example 1434]: the IC50 was 0.0513 µM.

With `Cc1nn(CC2COc3ccccc3O2)c(C)c1NC(=O)c1cc(C(N)=O)nc2ccccc12` (stereo not drawn) [Example 1103], the IC50 came out at 0.0447 µM.

Turning to `Cc1nn(Cc2ccc(F)cc2)c(C)c1NC(=O)c1cc(C(N)=O)nc2ccc(Br)cc12` [Example 119, 6-bromo-N^4-[1-(4-fluorobenzyl)-3,5-dimethyl-1H-pyrazol-4-yl]quinoline-2,4-dicarboxamide], the half-maximal inhibitory concentration (IC50) amounted to 0.0013 µM.

With `Cc1nn(Cc2ncccc2C#N)c(C)c1NC(=O)c1cc(C(N)=O)nc2ccc(Br)cc12` [Example 1408], the IC50 was 0.0049 µM.

`Cc1nn(Cc2ccccc2C#N)c(C)c1NC(=O)c1cc(C(N)=O)nc2cccc(F)c12` [Example 267, N^4-[1-(2-cyanobenzyl)-3,5-dimethyl-1H-pyrazol-4-yl]-5-fluoroquinoline-2,4-dicarboxamide]: the IC50 worked out at 0.0026 µM.

Regarding `Cc1nn(Cc2ccc(C(=O)NCc3ccccn3)cc2)c(C)c1NC(=O)c1cc(C(F)(F)F)nc2ccc(Br)cc12` [Example 1068], the IC50 was 0.0195 µM.

For `Cc1nn(CC(=O)Nc2ccc(F)cc2)c(C)c1NC(=O)c1cc(C(N)=O)nc2ccccc12` [Example 1692], the concentration for half-maximal inhibition (IC50) is 0.208 µM.

For `COc1cc(C(=O)Nc2c(C)nn(CCc3ccc(F)cc3)c2C)c2ccccc2n1` [Example 1181], the 50% inhibitory concentration (IC50) stood at 0.237 µM.

For `CC(=O)c1cccc(Cn2nc(C(F)(F)F)c(NC(=O)c3cc(C(N)=O)nc4cccc(F)c34)c2C)c1` [Example 1620], the IC50 came to 0.0963 µM.

For `Cc1c(NC(=O)c2cc(C(F)(F)F)nc3ccc(Br)cc23)c(C(F)(F)F)nn1Cc1ccc(C#N)cc1` [Example 161, 6-bromo-N-[1-(4-cyanobenzyl)-5-methyl-3-(trifluoromethyl)-1H-pyrazol-4-yl]-2-(trifluoromethyl)quinoline-4-carboxamide], the half-maximal inhibitory concentration (IC50) was 0.0151 µM.

For the molecule `CCc1nn(Cc2ccc(C#N)cc2)c(C)c1NC(=O)c1cc(C(N)=O)nc2ccccc12` [Example 325, N^4-[1-(4-cyanobenzyl)-3-ethyl-5-methyl-1H-pyrazol-4-yl]quinoline-2,4-dicarboxamide], the IC50 worked out at 0.0039 µM.

With `Cc1ccc2nc(C)cc(C(=O)Nc3c(C)nn(Cc4c(F)cccc4F)c3C)c2c1` [Example 84, N-[1-(2,6-difluorobenzyl)-3,5-dimethyl-1H-pyrazol-4-yl]-2,6-dimethylquinoline-4-carboxamide], the IC50 turned out to be 0.255 µM.

For the molecule `Cc1c(NC(=O)c2cc(C(N)=O)nc3cc(F)c(Cl)cc23)c(C(F)(F)F)nn1Cc1cc(F)ccc1C#N` [Example 1655], the IC50 is 0.238 µM.

With `Cc1c(NC(=O)c2cc(C(N)=O)nc3ccc(Br)cc23)c(C(F)(F)F)nn1Cc1ccc(C#N)cc1` [Example 250], the IC50 stood at 0.0036 µM.

For the molecule `COC(=O)c1coc(Cn2nc(C(F)(F)F)c(NC(=O)c3cc(C(N)=O)nc4ccccc34)c2C)n1` [Example 1680], the concentration for half-maximal inhibition (IC50) worked out at 0.146 µM.

Take `Cc1nn(Cc2ccc(C#N)cn2)c(C)c1NC(=O)c1cc(C(N)=O)nc2cc(F)c(Cl)cc12` [Example 351, 6-chloro-N^4-{1-[(5-cyanopyridin-2-yl)methyl]-3,5-dimethyl-1H-pyrazol-4-yl}-7-fluoroquinoline-2,4-dicarboxamide]: the IC50 turned out to be 0.0016 µM.

With `CCc1cc(Cn2nc(C)c(NC(=O)c3cc(C(N)=O)nc4ccccc34)c2C)on1` [Example 1531], the 50% inhibitory concentration (IC50) stood at 0.0376 µM.

Consider `COc1ccc(Cn2nc(C(F)(F)F)c(NC(=O)c3cc(C(N)=O)nc4cc(F)c(F)cc34)c2C)cc1` [Example 279, 6,7-difluoro-N^4-[1-(4-methoxybenzyl)-5-methyl-3-(trifluoromethyl)-1H-pyrazol-4-yl]quinoline-2,4-dicarboxamide], for which the IC50 turned out to be 0.0014 µM.

As for `Cc1ccc2nc(C)cc(C(=O)Nc3c(C)nn(Cc4ccccc4C#N)c3C)c2c1` [Example 114, N-[1-(2-cyanobenzyl)-3,5-dimethyl-1H-pyrazol-4-yl]-2,6-dimethylquinoline-4-carboxamide], the IC50 worked out at 0.833 µM.

`COc1ccc(Cn2nc(C(F)(F)F)c(NC(=O)c3cc(C(N)=O)nc4ccccc34)c2C)cn1` [Example 280, N^4-{1-[(6-methoxypyridin-3-yl)methyl]-5-methyl-3-(trifluoromethyl)-1H-pyrazol-4-yl}quinoline-2,4-dicarboxamide]: the IC50 came to 0.0011 µM.

Consider `CCc1nn(Cc2ccc(F)cc2)c(CC)c1NC(=O)c1cc(C(N)=O)nc2cc(Cl)ccc12` [Example 1391], for which the IC50 was 0.362 µM.

With `Cc1nn(Cc2ccc(C(=O)N3CCC3)cc2)c(C)c1NC(=O)c1cc(C(N)=O)nc2cc(F)ccc12` [Example 1419], the half-maximal inhibitory concentration (IC50) came to 0.0246 µM.

For the molecule `COc1ccc(Cn2nc(C)c(NC(=O)c3cc(C(F)(F)F)nc4ccc(Br)cc34)c2C)cc1F` [Example 1039], the IC50 turned out to be 0.0057 µM.

Take `Cc1c(NC(=O)c2cc(C(N)=O)nc3cccc(F)c23)c(C(F)(F)F)nn1Cc1ccc(CC(F)(F)F)cc1` [Example 1715]: the IC50 is 0.0015 µM.

In the case of `Cc1nn(Cc2noc(C(=O)N(C)C)n2)c(C)c1NC(=O)c1cc(C(F)(F)F)nc2ccc(Br)cc12` [Example 1522], the IC50 stood at 0.6 µM.

With `Cc1nn(Cc2ccc(F)c(F)c2)c(C)c1NC(=O)c1cc(C(F)(F)F)nc2ccc(Cl)cc12` [Example 165, 6-chloro-N-[1-(3,4-difluorobenzyl)-3,5-dimethyl-1H-pyrazol-4-yl]-2-(trifluoromethyl)quinoline-4-carboxamide], the IC50 worked out at 0.0304 µM.
